{"source": "paper PMC1616953", "about": "(Nucleic Acids Research, 2006)", "system": "Ssα-fuc", "test": "enzyme kinetics, 4-nitrophenyl substrate hydrolysis", "type": "biochemical, Saccharolobus solfataricus", "conditions": "65°C; KM printed as identical within error for Ssα-fuc and Ssα-fuc^B"}
{"compound": "C[C@@H]1O[C@@H](Oc2ccc([N+](=O)[O-])cc2)[C@@H](O)[C@H](O)[C@@H]1O", "note": "[4NP-Fuc, 4-nitrophenyl-α-L-fucoside]", "values": [{"measurement": "Km", "value": "28.7 ± 5", "unit": "µM"}]}
